Laboratory results taken from paper PMC3119039 (2011).
pIC50: −log10 of the molar value.

Target: Cdk2^as (Homo sapiens, UniProt P24941, F80G)
Assay: histone H1 kinase assay with [γ-32P]ATP, purified Cdk2/cyclin A
Assay type: biochemical

pIC50: ~8.52
SMILES: Cc1cccc(Cc2nn(C(C)(C)C)c3ncnc(N)c23)c1 [3-MB-PP1]
